Test results from the supplement of paper PMC7444282.

Tests used:
Vero E6 [1] = assay: CPE rescue EC50 (SARS-CoV-2 infected Vero E6); higher = less potent antiviral; conditions: virus: SARS-CoV-2 USA_WA1/2020, MOI 0.002; 72 h
Method: (§1)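 Read-out is CellTiter-Glo ATP luminescence, normalised to DMSO-only wells (0% rescue) and no-virus wells (100% rescue). The cytotoxicity counter-assay used the same protocol without virus, normalised to DMSO (100% viability) and hyamine (0% viability). Confirmation used 8-point 1:3 titrations in duplicate, fitted to a four-parameter Hill equation.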

Vero E6 [2] = assay: cytotoxicity CC50 (uninfected Vero E6, ATP content); higher = less cytotoxic; conditions: virus: none (uninfected); 72 h
Method: as §1

Vero E6 [3] = assay: cytotoxicity maximal efficacy (% viability loss, DMSO = 0%, hyamine = 100%); higher = more cytotoxic; conditions: virus: none (uninfected); 72 h
Method: as §1

## O=C(O)c1ccc(CCCc2ccc(OCCc3ccc(F)cc3)cc2)o1
Vero E6 [1]
  CPE rescue EC50: 141 nM

## CN(CCCNC(=O)c1ccc2nc3c(c(Cl)c2c1)CCCC3)Cc1ccccc1
Vero E6 [2]
  cytotoxicity CC50: 12600 nM
Vero E6 [3]
  cytotoxicity maximal efficacy: 39.1%

## CCC(C)C(=O)OC12C(OC(C)=O)C(C)C3(O)C(C=C(CO)CC4(O)C(=O)C(C)=CC43)C1C2(C)C (stereo unspecified)
Vero E6 [1]
  CPE rescue EC50: 982 nM

## CCC[C@@H](C=O)NC(=O)[C@H](CC(C)C)NC(=O)[C@H](CC(C)C)NC(=O)OCc1ccccc1
Vero E6 [2]
  cytotoxicity CC50: 1130 nM
Vero E6 [3]
  cytotoxicity maximal efficacy: 115%

## O=S(=O)(Cc1ccccc1)Nc1ccc(-c2ccc3c(cnn3-c3ccc(F)cc3)c2)c(C(F)(F)F)c1
Vero E6 [2]
  cytotoxicity CC50: 14100 nM
Vero E6 [3]
  cytotoxicity maximal efficacy: 24.3%

## COc1ccc(-c2csc(NC(=O)[C@H]3CCCCN3S(=O)(=O)c3ccc(C)cc3)n2)cc1
Vero E6 [2]
  cytotoxicity CC50: 2000 nM

## C[C@@H]1O[C@@H](O[C@H]2[C@H](OC(=O)[C@]34CCC(C)(C)C[C@H]3C3=CCC5[C@@]6(C)CC[C@H](O[C@@H]7O[C@H](CO[C@@H]8OC[C@H](O)[C@H](O)[C@H]8O)[C@@H](O)[C@H](O)[C@H]7O)C(C)(C)C6CC[C@@]5(C)[C@]3(C)C[C@H]4O)OC[C@@H](O)[C@@H]2O)[C@H](O)[C@H](O[C@@H]2OC[C@](O)(CO)[C@H]2O)[C@H]1O[C@@H]1OC[C@H](O)[C@H](O[C@@H]2OC[C@@H](O)[C@H](O)[C@H]2O)[C@H]1O (stereo partly specified)
Vero E6 [1]
  CPE rescue EC50: 955 nM

## CC1(C)CC(=O)c2c(C(F)(F)F)nn(-c3ccc(C(N)=O)c(N[C@H]4CC[C@H](OC(=O)CN)CC4)c3)c2C1
Vero E6 [2]
  cytotoxicity CC50: 562 nM

## Cn1cc(-c2ccc(-c3cncc(Cl)c3N3CCC4(CCNC4=O)CC3)cc2)cn1
Vero E6 [2]
  cytotoxicity CC50: 282 nM

## OCCCNc1cc(-c2ccnc(Nc3cccc(Cl)c3)n2)ccn1
Vero E6 [2]
  cytotoxicity CC50: 112 nM

## Cn1cc(S(=O)(=O)c2ccc(Cl)cc2)c2cccc(N3CCNCC3)c21
Vero E6 [2]
  cytotoxicity CC50: 11200 nM
Vero E6 [3]
  cytotoxicity maximal efficacy: 48.3%

## O[C@H]1[C@H]2c3cc4c(cc3CN3CCC(=C[C@@H]1O)[C@H]23)OCO4
Vero E6 [1]
  CPE rescue EC50: 631 nM

## C[C@@H]1O[C@@H](O[C@@H]2[C@@H](O)[C@H](O[C@@H]3[C@@H](O)[C@@H](O)[C@H](O[C@H]4[C@H](OC(=O)[C@]56CCC(C)(C)C[C@H]5C5=CCC7[C@@]8(C)C[C@H](O)[C@H](O[C@@H]9O[C@@H](C)[C@H](O)[C@@H](O)[C@H]9O)[C@@](C)(CO)C8CC[C@@]7(C)[C@]5(C)C[C@H]6O)O[C@H](C)[C@H](O)[C@@H]4O)O[C@H]3C)OC[C@H]2O)[C@H](O)[C@H](O)[C@H]1O (stereo partly specified)
Vero E6 [1]
  CPE rescue EC50: 851 nM

## CC(C)(C[C@@](O)(Cc1cc2ccncc2[nH]1)C(F)(F)F)c1cc(F)ccc1O
Vero E6 [2]
  cytotoxicity CC50: 15800 nM
Vero E6 [3]
  cytotoxicity maximal efficacy: 22.4%

## CC(=O)c1c(OCCN2CCCCC2)c(OCCC(C)c2ccc(F)cc2)c2oc(C)nc2c1C (stereo unspecified)
Vero E6 [2]
  cytotoxicity CC50: 14100 nM
Vero E6 [3]
  cytotoxicity maximal efficacy: 33.2%

## COC[C@H]1OC(=O)/C(=C/N(C)CCCN(C)C)C2=C(O)C(=O)C3=C([C@H](OC(C)=O)C[C@]4(C)[C@@H](O)CC[C@@H]34)[C@]21C
Vero E6 [2]
  cytotoxicity CC50: 8910 nM
Vero E6 [3]
  cytotoxicity maximal efficacy: 62.1%

## CC(C)C(=O)O[C@H]1[C@@H]2[C@H](C)C(=O)O[C@@H]2C[C@@H](C)[C@@H]2C=CC(=O)[C@]21C
Vero E6 [2]
  cytotoxicity CC50: 12600 nM
Vero E6 [3]
  cytotoxicity maximal efficacy: 34.2%

## C/C=C(\C)C(=O)OC1C(C)C2(O)C3C=C(C)C(=O)C3CC(CO)=CC2C2C(C)(C)C12OC(C)=O (stereo unspecified)
Vero E6 [2]
  cytotoxicity CC50: 348 nM

## CN(CCc1ccc(Nc2ncc(-c3cccnc3)s2)cc1)Cc1ccccc1
Vero E6 [2]
  cytotoxicity CC50: 12600 nM
Vero E6 [3]
  cytotoxicity maximal efficacy: 44.4%

## CC(C)C[C@H](NC(=O)[C@H](Cc1ccccc1)NC(=O)OCc1ccccc1)C(=O)C=O
Vero E6 [2]
  cytotoxicity CC50: 11200 nM
Vero E6 [3]
  cytotoxicity maximal efficacy: 33.4%

## CC(=O)OC[C@]12C[C@H](OC(=O)CC(C)C)C(C)=C[C@H]1O[C@@H]1[C@H](O)[C@@H](O)[C@@]2(C)[C@]12CO2
Vero E6 [2]
  cytotoxicity CC50: 127 nM

## O=S(=O)(NCC1CC1)c1ccc(Nc2nccc(N3CCCc4cc(O)ccc43)n2)cc1
Vero E6 [1]
  CPE rescue EC50: 794 nM

## OC1CCC(Oc2cccc3cnc(Nc4ccc5nc[nH]c5c4)nc23)CC1 (stereo unspecified)
Vero E6 [2]
  cytotoxicity CC50: 891 nM
Vero E6 [3]
  cytotoxicity maximal efficacy: 50.5%

## C/C(=N\Nc1nnc2c(n1)[nH]c1c(C)cccc12)c1ccccn1
Vero E6 [2]
  cytotoxicity CC50: 355 nM
Vero E6 [3]
  cytotoxicity maximal efficacy: 76.3%

## CC(C)(N)c1ccc(-c2nc3ccccc3nc2-c2ccccc2)cc1
Vero E6 [2]
  cytotoxicity CC50: 12600 nM
Vero E6 [3]
  cytotoxicity maximal efficacy: 34.2%

## COc1ccc2c(Oc3ccc(NC(=O)c4c(C)n(CC(C)(C)O)n(-c5ccccc5)c4=O)cc3F)ccnc2c1
Vero E6 [2]
  cytotoxicity CC50: 14100 nM
Vero E6 [3]
  cytotoxicity maximal efficacy: 70.3%

## N#Cc1ccc(O[C@@H]2c3ccccc3C[C@H]2N2CCC[C@@H](N)C2)c(Cl)c1
Vero E6 [2]
  cytotoxicity CC50: 12600 nM
Vero E6 [3]
  cytotoxicity maximal efficacy: 52.9%

## NC(=O)c1ccccc1Nc1ccnc(Nc2cccc(O)c2)n1
Vero E6 [2]
  cytotoxicity CC50: 1000 nM

## c1ccc2c(-c3cnn4cc(-c5ccc(OCCN6CCOCC6)cc5)cnc34)ccnc2c1
Vero E6 [2]
  cytotoxicity CC50: 5520 nM
Vero E6 [3]
  cytotoxicity maximal efficacy: 29.1%

## COC(=O)[C@@]12OC[C@]34[C@H]([C@@H](O)[C@@H]1O)[C@@]1(C)CC(=O)C(O)=C(C)[C@@H]1C[C@H]3OC(=O)[C@H](OC(=O)/C=C(\C)C(C)C)[C@@H]24
Vero E6 [2]
  cytotoxicity CC50: 142 nM

## O=c1cc(-c2cccc3c2Sc2ccccc2S3)oc(N2CCOCC2)c1
Vero E6 [2]
  cytotoxicity CC50: 10000 nM
Vero E6 [3]
  cytotoxicity maximal efficacy: 42.6%

## CCOc1ccc(-c2nc(-c3cccc4c3CCC4NCCO)no2)cc1OCC (stereo unspecified)
Vero E6 [2]
  cytotoxicity CC50: 631 nM

## CO/C1=C\C(C)=C\[C@@H](C)[C@@H](O)[C@@H](C)C/C(C)=C/C=C\[C@H](OC)C([C@@H](C)[C@@H](O)[C@H](C)[C@@]2(O)C[C@@H](O)[C@H](C)C(C(C)C)O2)OC1=O (stereo partly specified)
Vero E6 [2]
  cytotoxicity CC50: 101 nM

## C[C@@H]1O[C@@H](O[C@H]2[C@H](OC(=O)[C@]34CCC(C)(C)C[C@H]3C3=CCC5[C@@]6(C)CC[C@H](O[C@@H]7O[C@H](CO[C@@H]8OC[C@H](O)[C@H](O)[C@H]8O)[C@@H](O)[C@H](O)[C@H]7O)C(C)(C)C6CC[C@@]5(C)[C@]3(C)C[C@H]4O)OC[C@@H](O)[C@@H]2O)[C@H](O)[C@H](O)[C@H]1O[C@@H]1OC[C@H](O)[C@H](O[C@@H]2OC[C@@H](O)[C@H](O)[C@H]2O)[C@H]1O (stereo partly specified)
Vero E6 [1]
  CPE rescue EC50: 602 nM

## C/C(=N\NC(=O)c1cccc(S(=O)(=O)N2CCOCC2)c1)c1cc(Cl)ccc1O
Vero E6 [2]
  cytotoxicity CC50: 1000 nM

## C(=N\Nc1nc(Nc2ccccc2)nc(N2CCOCC2)n1)/c1c[nH]c2ccccc12
Vero E6 [1]
  CPE rescue EC50: 113 nM

## CCc1ccc(/C=C2/SC(=S)NC2=O)cc1
Vero E6 [2]
  cytotoxicity CC50: 12600 nM
Vero E6 [3]
  cytotoxicity maximal efficacy: 34.2%

## CN(C)c1cc2c(cc1Sc1nc3c(N)nccc3n1CCNCC(C)(C)C)OCO2
Vero E6 [2]
  cytotoxicity CC50: 708 nM

## Cn1c(Nc2ccc(C(F)(F)F)cc2)nc2cc(Oc3ccnc(-c4ncc(C(F)(F)F)[nH]4)c3)ccc21
Vero E6 [1]
  CPE rescue EC50: 794 nM
Vero E6 [2]
  cytotoxicity CC50: 316 nM

## O=C(c1ccc(-c2ccc(Cl)cc2)o1)N(Cc1ccccn1)c1ccc(N2CCNCC2)cc1
Vero E6 [2]
  cytotoxicity CC50: 11200 nM
Vero E6 [3]
  cytotoxicity maximal efficacy: 95.2%

## COc1ccccc1OCCNCC(O)CCOc1cccc2[nH]c3ccccc3c12 (stereo unspecified)
Vero E6 [2]
  cytotoxicity CC50: 10000 nM
Vero E6 [3]
  cytotoxicity maximal efficacy: 16.2%

## c1ccc(-c2ccc(CNc3nc(-c4ccccn4)nnc3-c3ccccc3)cc2)cc1
Vero E6 [1]
  CPE rescue EC50: 631 nM
Vero E6 [2]
  cytotoxicity CC50: 562 nM

## CC(C)[C@H]1C(=O)N[C@H](CO)Cc2c[nH]c3cccc(c23)N1C
Vero E6 [2]
  cytotoxicity CC50: 1240 nM
Vero E6 [3]
  cytotoxicity maximal efficacy: 20.4%

## COCCN1CCN(Cc2ccc(-c3n[nH]c4c3C(=O)c3c(NC(=O)NN5CCOCC5)cccc3-4)cc2)CC1
Vero E6 [2]
  cytotoxicity CC50: 316 nM

## COc1ccc2sc(NC(c3ccc(OC(F)F)cc3)c3ccc4cccnc4c3O)nc2c1 (stereo unspecified)
Vero E6 [1]
  CPE rescue EC50: 891 nM
Vero E6 [2]
  cytotoxicity CC50: 708 nM

## CC(=NNC(=S)N1CCC1)c1ccccn1
Vero E6 [2]
  cytotoxicity CC50: 355 nM

## COc1c(C)cnc(Cn2cnc3c(Cl)nc(N)nc32)c1C
Vero E6 [2]
  cytotoxicity CC50: 355 nM
